Where “and” joins values, the source holds several entries; their conditions need not be identical. Identical values can stand only once. Entries after “also recorded” stand apart in the source; their conditions may differ. Like-named read-outs stand apart in the source and are kept apart here.
How the values were obtained:
[1] = test system: PXR and its CYP2C9 and CYP3A4 target genes
[2] = test system: hESC-derived hepatocytes; assay type: cell-based, human; conditions: LA replaced with 9CLA, with 100 μM OA
[3] = target: PXR (Homo sapiens, UniProt O75469); assay type: cell-based
Description: (§1) Cultured cells were fixed using 4% paraformaldehyde for 15 minutes at room temperature. […] Following washes, cells were incubated with secondary antibodies for 1 hour at room temperature in blocking buffer (Table 10, hereinbelow). Hoechst staining was performed using bisBenzimide H33342 for 2 minutes. Imaging was performed on a Zeiss LSM 700 confocal microscope.

[4] = test system: hESC-derived hepatocytes; assay: HSP60 immunofluorescence and CellProfiler analysis of mitochondrial network; assay type: cell-based, human
Description: as §1

[5] = test system: hESC-derived hepatocytes; assay: qRT-PCR of nuclear receptors, lipid metabolism, albumin and mitochondrial genes after fatty acid treatment; assay type: cell-based, human
[6] = test system: hESC-derived hepatocytes; assay: Albumin, AFP and ApoB100 production (ELISA); assay type: cell-based, human; conditions: cells treated with OA and LA; 24-hours treatment with GW9662
Description: Culture media samples were collected daily and stored at −80° C. Albumin and AFP concentrations were analyzed using Human Albumin ELISA quantitation set (Bethyl laboratories, Montgomery, Tex.) and Human AFP (alpha-fetoprotein) Quantikine ELISA kit (R&D Systems, Minneapolis, Minn.), according to manufacturer directions. […] Data was normalized to total cellular protein utilizing the Bradford assay.

[7] = test system: hESC-derived hepatocytes; assay type: cell-based, human; conditions: 50 μM LCA
[8] = test system: CYP450 (CYP1A, CYP3A4, CYP2C9); conditions: human, 72 h
Description: CYP1A activity was evaluated utilizing EROD (ethoxyresorufin-o-deethylase) as previously described (Behnia, 2000). […] Briefly, cultures were incubated with 100 μM BFC (7-benzyloxy-4-trifluoromethylcoumarinat), or 10 μM MFC (7-methoxy-4-trifluoromethylcoumarin) for 1 hour at 37° C. Supernatant samples were collected every 30 minutes for 2.5 hours. The reactions were stopped by collection of the incubation medium. Metabolite conjugates formed via phase II activity were hydrolyzed by incubation of medium samples with β-glucuronidase/arylsulfatase for 2 hours at 37° C. Samples were diluted 1:1 in quenching solution and HFC (7-hydroxy-4-trifluoromethylcoumarin), the respective fluorescent metabolite formation, was measured at the appropriate wavelengths (410/510) and normalized to total protein determined by Bradford.
CYP450 activity was quantified as described above at the end of the stimulation period.

[9] = test system: hESC-derived hepatocytes; conditions: human, 24 h
Description: Quantification of intracellular lipids was performed using LipidTOX™ Green Neutral Lipid Stain (Molecular Probes). […] Staining intensity was normalized to negative control. […] Incubation media was removed and cultures washed with ice-cold PBS containing calcium and magnesium. The number of green CDF particles was normalized to the number of Hoechst nuclei as an indicator of functional bile canaliculi. Particle and nuclei counting was performed utilizing the ImageJ particle analyzer.

[10] = test system: LCA- and MK4-treated hESC-derived hepatocytes
Description: Cultured cells were exposed to different concentrations of compounds dissolved in culture medium for 24 hours at 37° C. Cell viability was determined utilizing LIVE/DEAD Cytotoxicity kit (Molecular Probes, Eugene, Oreg.) according to manufacturer instructions. In brief, cultures were incubated with 2 μM Calcein AM and 3 μM ethidium homodimer-1 for 25 minutes. Hydrolysis by functional intracellular esterases causes live cells to fluoresce green, while the punctured membranes of dead cells permit ethidium homodimer-1 to bind DNA and fluoresce red. Cellular viability was calculated by live to dead ratio and normalized to negative control. TC50 values were quantified using GraphPad Prism software (La Jolla, Calif.).
Differentiation was adapted to 96-well plates (General Materials and Experimental Methods above). Cells were exposed to increasing concentrations of compounds on day 16, and viability was quantified using fluorescence Live/Dead staining after 24 hours of exposure (FIG. 4D).

[11] = test system: hESC-derived hepatocytes
Description: Toxicological endpoints were evaluated for nine hepatotoxic compounds at TC20 values identified above. Quantitation of apoptotic cells was performed utilizing DeadEnd™ fluorometric TUNEL System (Promega, Madison, Wis.) according to manufacturer instructions. […] Cell were permeabilized and exposed to fluorescein-12-dUTP and terminal deoxynucleotidyl transferase (TdT), dying apoptotic nuclei green. The reaction was subsequently stopped and the cells counterstained for DAPI. A percent apoptotic nucleus was calculated by dividing the number of TUNEL to DAPI positive nuclei.

Sequence of PXR (O75469 whole entry): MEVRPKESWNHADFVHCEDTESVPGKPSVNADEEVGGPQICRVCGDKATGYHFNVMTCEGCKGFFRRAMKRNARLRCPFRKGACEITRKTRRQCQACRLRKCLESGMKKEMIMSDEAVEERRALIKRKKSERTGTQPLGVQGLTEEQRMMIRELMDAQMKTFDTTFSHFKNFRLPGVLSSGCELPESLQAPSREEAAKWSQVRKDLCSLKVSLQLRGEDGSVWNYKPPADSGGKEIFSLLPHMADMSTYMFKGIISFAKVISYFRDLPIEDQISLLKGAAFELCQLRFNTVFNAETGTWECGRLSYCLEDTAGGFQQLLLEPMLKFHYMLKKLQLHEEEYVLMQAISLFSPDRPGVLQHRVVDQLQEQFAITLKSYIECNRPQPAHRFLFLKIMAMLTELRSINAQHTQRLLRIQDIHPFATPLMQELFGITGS

## CCCCCC/C=C/C=C\CCCCCCCC(=O)O [9CLA, cis-9,trans-11-octadecadienoic acid]
[1]; hepatocytes
  CYP3A4 and CYP2C9 gene expression: increased significantly
[2]
  mitochondrial respiration relative to primary human hepatocytes: 60%
[3]; 100 μM each, 9CLA replaces LA, with OA
  increase in PXR nuclear localization compared to untreated cells: 50%
[3]; with OA
  additional increase in PXR nuclear localization when LA is replaced with 9CLA: 30% and 40%

## C[S+](C)[O-] [DMSO, Dimethyl sulfoxide]
[1]; human, hepatocytes, 2 %
  CYP450 gene expression: increased expression of all CYP450 enzymes measured
  increase in expression of PXR and most CYP450 enzymes checked: 2-6 fold

## O=C(Nc1ccccc1)c1cc([N+](=O)[O-])ccc1Cl [GW9662]
[4]
  effect on fatty acid induced elongation and narrowing of mitochondria: reversed the effect
[5]; 24-hours treatment, OA and LA treated cells
  effect on expression of genes involved in lipid metabolism: inhibited
[5]; fatty acid treated cells
  PGC1, MFN2 and FIS1 gene expression: decrease
[1]; fatty acid treated cells
  CYP3A4 and CYP2C9 gene expression: down-regulated
[6]
  effect on albumin secretion / albumin gene expression and production: significant decrease; also recorded: blocked
[3]; fatty acid treated cells
  effect on PXR nuclear localization: down-regulated; also recorded: significant decrease

## C[C@H](CCC(=O)O)[C@H]1CC[C@H]2[C@@H]3CC[C@@H]4C[C@H](O)CC[C@]4(C)[C@H]3CC[C@]12C [LCA, lithocholic acid]
[7]
  toxicity to differentiating cells: mild toxicity

## CC(C)=CCC/C(C)=C/CC/C(C)=C/CC/C(C)=C/CC1=C(C)C(=O)c2ccccc2C1=O [MK4, menaquinone-4]
[1]; 10 μM, final maturation step
  PXR expression induction: 1.9 fold

## COc1ccc2[nH]c([S+]([O-])Cc3ncc(C)c(OC)c3C)nc2c1 (centres unmarked) [Omeprazole, omeprazole]
[8]
  induction of BFC metabolism: 3 fold
[8]; 50 μM
  induction of EROD metabolism: 9 fold
[8]; hepatocytes, 50 μM
  induction of CYP450 activity: preferentially induced CYP1A

## CC(=O)Oc1ccccc1C(=O)O [acetylsalicylic acid]
[9]
  increase in intracellular lipids compared to control: 25-26 fold
[10]; human, 24 h
  TC20 concentration used for endpoint assays: 2000 µM

## CN(C)CCCN1c2ccccc2Sc2ccc(Cl)cc21 [chlorpromazine]
[9]
  decrease in number of CDF-positive bile canaliculi compared to control: 13-30 fold
  loss of epithelial polarization: 14 fold
[10]; human, 24 h
  TC20 concentration used for endpoint assays: 45 µM

## O=C(O)Cc1ccccc1Nc1c(Cl)cccc1Cl [diclofenac]
[11]
  DNA fragmentation compared to control: significant increase
[11]; human, 24 h
  increase in percent of apoptotic nuclei compared to control: 3-4 fold
[10]; human
  TC20 concentration used for endpoint assays: 300 µM

## OC[C@@H](O)[C@@H](O)[C@H](O)[C@H](O)CO [mannitol]
[10]
  toxicity: no adverse effects

## COc1ccc2[nH]cc(CCNC(C)=O)c2c1 [melatonin]
[11]
  effect on cell viability: not affecting
[9]
  increase in intracellular lipids compared to control: 30 fold
  intracellular lipid accumulation: significant (P<0.006) increase
[10]
  toxicity: clear toxicity
[10]; human, 24 h
  TC50: 700 ± 200 µM

## CC1CCC(C(C)C)C(O)C1 (centres unmarked) [menthol]
[10]
  toxicity: no adverse effects

## Cc1c(C)c2c(c(C)c1O)CCC(C)(COc1ccc(CC3SC(=O)NC3=O)cc1)O2 (centres unmarked) [troglitazone]
[9]
  decrease in number of CDF-positive bile canaliculi compared to control: 13-30 fold
  loss of epithelial polarization: 14 fold
[10]; human, 24 h
  TC20 concentration used for endpoint assays: 80 µM

## CCCC(CCC)C(=O)O [valproic acid]
[9]
  increase in intracellular lipids compared to control: 25-26 fold

## aflatoxin B1
[11]
  DNA fragmentation compared to control: significant increase
[10]
  TC20 concentration used for endpoint assays: 2 µM

From patent US10772863B2, “Methods of inducing metabolic maturation of human pluripotent stem cells— derived hepatocytes” (priority 2016, dated 2020)
